Assay results reported in ChEMBL document CHEMBL4507264, “Data for DCP probe BAY-7598” (2021).

What was measured:
[1] = test system: Tyrosine-protein kinase ABL1 (Homo sapiens), P00519 [F317I]; details: Compound concentration 1000.0 nM
[2] = test system: Tyrosine-protein kinase ABL1 (Homo sapiens), P00519 [H396P]; details: Compound concentration 1000.0 nM
[3] = test system: Tyrosine-protein kinase ABL1 (Homo sapiens), P00519 [Q252H]; details: Compound concentration 1000.0 nM
[4] = target: ALK tyrosine kinase receptor (Homo sapiens) (UniProt Q9UM73); details: Compound concentration 1000.0 nM
ALK tyrosine kinase receptor (Homo sapiens), sequence (Q9UM73 19-1620 limits assumed): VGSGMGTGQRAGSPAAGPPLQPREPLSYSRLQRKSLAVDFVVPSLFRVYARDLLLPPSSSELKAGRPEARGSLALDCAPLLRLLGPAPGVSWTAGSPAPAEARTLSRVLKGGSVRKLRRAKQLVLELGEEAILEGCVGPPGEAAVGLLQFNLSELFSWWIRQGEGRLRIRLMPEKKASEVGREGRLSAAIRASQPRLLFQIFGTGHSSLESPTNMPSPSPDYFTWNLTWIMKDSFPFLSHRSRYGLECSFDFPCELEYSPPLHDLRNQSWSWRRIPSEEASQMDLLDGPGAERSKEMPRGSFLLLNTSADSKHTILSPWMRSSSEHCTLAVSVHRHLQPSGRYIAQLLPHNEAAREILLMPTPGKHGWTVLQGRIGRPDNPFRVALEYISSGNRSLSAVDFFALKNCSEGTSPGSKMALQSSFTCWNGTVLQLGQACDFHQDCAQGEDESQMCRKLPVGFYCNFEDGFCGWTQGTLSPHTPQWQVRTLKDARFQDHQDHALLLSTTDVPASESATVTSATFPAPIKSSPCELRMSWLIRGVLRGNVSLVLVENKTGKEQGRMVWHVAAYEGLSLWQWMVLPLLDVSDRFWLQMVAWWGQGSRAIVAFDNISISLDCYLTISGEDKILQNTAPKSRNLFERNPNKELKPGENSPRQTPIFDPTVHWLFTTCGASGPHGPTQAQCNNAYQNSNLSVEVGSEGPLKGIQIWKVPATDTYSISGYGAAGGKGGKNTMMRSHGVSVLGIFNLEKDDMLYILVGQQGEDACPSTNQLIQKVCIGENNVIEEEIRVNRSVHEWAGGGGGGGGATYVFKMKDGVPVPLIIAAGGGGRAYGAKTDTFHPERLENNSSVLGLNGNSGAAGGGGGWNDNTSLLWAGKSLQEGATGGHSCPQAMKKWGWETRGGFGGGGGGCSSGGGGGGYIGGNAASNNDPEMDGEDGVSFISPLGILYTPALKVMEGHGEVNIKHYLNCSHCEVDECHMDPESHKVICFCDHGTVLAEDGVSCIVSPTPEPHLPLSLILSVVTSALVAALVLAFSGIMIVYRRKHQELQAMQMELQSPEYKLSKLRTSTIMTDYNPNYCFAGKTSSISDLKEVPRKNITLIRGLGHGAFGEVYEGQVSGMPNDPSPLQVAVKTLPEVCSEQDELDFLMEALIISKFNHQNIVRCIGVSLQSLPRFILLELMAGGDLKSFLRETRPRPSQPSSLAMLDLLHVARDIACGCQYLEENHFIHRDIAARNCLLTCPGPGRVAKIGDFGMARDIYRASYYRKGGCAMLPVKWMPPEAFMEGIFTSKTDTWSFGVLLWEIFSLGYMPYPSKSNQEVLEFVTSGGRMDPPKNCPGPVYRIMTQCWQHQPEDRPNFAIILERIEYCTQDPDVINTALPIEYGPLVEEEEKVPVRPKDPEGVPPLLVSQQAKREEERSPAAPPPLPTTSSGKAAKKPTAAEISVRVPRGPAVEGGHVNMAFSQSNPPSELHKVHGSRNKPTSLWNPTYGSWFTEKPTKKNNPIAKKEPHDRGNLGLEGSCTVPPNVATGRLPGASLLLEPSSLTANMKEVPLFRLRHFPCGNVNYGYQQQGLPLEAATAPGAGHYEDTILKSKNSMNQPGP

[5] = test system: ALK tyrosine kinase receptor (Homo sapiens), Q9UM73 [C1156Y]; details: Compound concentration 1000.0 nM
[6] = target: Aurora kinase C (Homo sapiens) (UniProt Q9UQB9); details: Compound concentration 1000.0 nM
Aurora kinase C (Homo sapiens), sequence (Q9UQB9 whole entry): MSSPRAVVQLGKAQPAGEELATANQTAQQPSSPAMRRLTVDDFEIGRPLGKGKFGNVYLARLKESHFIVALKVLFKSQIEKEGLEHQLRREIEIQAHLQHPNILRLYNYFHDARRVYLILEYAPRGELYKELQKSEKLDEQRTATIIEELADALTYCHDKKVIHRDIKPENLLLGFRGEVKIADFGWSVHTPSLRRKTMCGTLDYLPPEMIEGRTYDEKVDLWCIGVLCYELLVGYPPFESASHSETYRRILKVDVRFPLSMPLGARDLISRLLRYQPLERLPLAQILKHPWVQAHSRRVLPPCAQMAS

[7] = target: Calcium/calmodulin-dependent protein kinase type 1G (Homo sapiens) (UniProt Q96NX5); details: Compound concentration 1000.0 nM
[8] = target: Calcium/calmodulin-dependent protein kinase type II subunit delta (Homo sapiens) (UniProt Q13557); details: Compound concentration 1000.0 nM
[9] = target: Calcium/calmodulin-dependent protein kinase type II subunit gamma (Homo sapiens) (UniProt Q13555); details: Compound concentration 1000.0 nM
[10] = target: Cyclin-dependent kinase 19 (Homo sapiens) (UniProt Q9BWU1); details: Compound concentration 1000.0 nM
[11] = target: Cyclin-dependent kinase-like 3 (Homo sapiens) (UniProt Q8IVW4); details: Compound concentration 1000.0 nM
[12] = target: Serine/threonine-protein kinase Chk2 (Homo sapiens) (UniProt O96017); details: Compound concentration 1000.0 nM
[13] = target: Dual specificity protein kinase CLK4 (Homo sapiens) (UniProt Q9HAZ1); details: Compound concentration 1000.0 nM
[14] = target: Serine/threonine-protein kinase DCLK2 (Homo sapiens) (UniProt Q8N568); details: Compound concentration 1000.0 nM
[15] = target: Serine/threonine-protein kinase 17B (Homo sapiens) (UniProt O94768); details: Compound concentration 1000.0 nM
[16] = target: Dual specificity tyrosine-phosphorylation-regulated kinase 1A (Homo sapiens) (UniProt Q13627); details: Compound concentration 1000.0 nM
[17] = target: Dual specificity tyrosine-phosphorylation-regulated kinase 1B (Homo sapiens) (UniProt Q9Y463); details: Compound concentration 1000.0 nM
[18] = test system: Epidermal growth factor receptor (Homo sapiens), P00533 [UNDEFINED MUTATION]; details: Compound concentration 1000.0 nM
[19] = test system: Receptor-type tyrosine-protein kinase FLT3 (Homo sapiens), P36888 [D835H]; details: Compound concentration 1000.0 nM
[20] = target: Tyrosine-protein kinase FRK (Homo sapiens) (UniProt P42685); details: Compound concentration 1000.0 nM
[21] = target: Cyclin-G-associated kinase (Homo sapiens) (UniProt O14976); details: Compound concentration 1000.0 nM
Cyclin-G-associated kinase (Homo sapiens), sequence (O14976 whole entry): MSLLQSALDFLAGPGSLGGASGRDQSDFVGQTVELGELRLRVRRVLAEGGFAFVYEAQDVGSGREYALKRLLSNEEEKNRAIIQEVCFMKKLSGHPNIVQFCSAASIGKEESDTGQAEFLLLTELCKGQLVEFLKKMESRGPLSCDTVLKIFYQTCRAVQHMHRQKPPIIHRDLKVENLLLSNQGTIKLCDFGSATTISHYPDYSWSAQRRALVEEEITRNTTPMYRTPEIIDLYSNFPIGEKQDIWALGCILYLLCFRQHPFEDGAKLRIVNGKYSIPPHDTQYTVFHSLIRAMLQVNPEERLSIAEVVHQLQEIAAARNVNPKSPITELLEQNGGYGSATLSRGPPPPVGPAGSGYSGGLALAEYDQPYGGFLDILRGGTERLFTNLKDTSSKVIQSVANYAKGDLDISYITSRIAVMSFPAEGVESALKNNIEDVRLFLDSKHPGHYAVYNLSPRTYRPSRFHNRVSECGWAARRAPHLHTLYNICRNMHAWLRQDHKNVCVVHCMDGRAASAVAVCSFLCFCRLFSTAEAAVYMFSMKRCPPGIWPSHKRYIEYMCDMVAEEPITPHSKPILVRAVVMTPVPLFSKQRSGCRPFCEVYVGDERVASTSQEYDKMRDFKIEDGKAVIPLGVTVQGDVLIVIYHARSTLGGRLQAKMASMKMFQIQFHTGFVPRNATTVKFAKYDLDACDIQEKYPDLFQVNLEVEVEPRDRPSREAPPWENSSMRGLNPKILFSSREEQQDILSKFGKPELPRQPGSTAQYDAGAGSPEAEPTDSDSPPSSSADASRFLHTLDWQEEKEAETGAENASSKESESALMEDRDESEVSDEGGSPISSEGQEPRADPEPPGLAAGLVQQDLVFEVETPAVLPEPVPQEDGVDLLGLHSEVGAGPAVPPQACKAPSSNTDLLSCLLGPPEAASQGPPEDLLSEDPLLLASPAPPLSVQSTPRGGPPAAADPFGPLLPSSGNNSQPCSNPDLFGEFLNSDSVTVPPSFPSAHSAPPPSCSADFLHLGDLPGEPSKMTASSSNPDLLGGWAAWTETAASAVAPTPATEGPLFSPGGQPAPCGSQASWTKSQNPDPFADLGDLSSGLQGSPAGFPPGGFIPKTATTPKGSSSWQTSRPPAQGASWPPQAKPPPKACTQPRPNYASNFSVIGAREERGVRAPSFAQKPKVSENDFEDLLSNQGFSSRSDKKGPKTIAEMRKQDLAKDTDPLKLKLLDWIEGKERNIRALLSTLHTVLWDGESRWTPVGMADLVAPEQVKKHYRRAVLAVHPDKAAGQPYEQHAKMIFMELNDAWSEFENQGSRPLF

[22] = target: G protein-coupled receptor kinase 3 (Homo sapiens) (UniProt P35626); details: Compound concentration 1000.0 nM
[23] = target: Homeodomain-interacting protein kinase 1 (Homo sapiens) (UniProt Q86Z02); details: Compound concentration 1000.0 nM
[24] = target: Tyrosine-protein kinase Lyn (Homo sapiens) (UniProt P07948); details: Compound concentration 1000.0 nM
Tyrosine-protein kinase Lyn (Homo sapiens), sequence (P07948 2-512 limits assumed): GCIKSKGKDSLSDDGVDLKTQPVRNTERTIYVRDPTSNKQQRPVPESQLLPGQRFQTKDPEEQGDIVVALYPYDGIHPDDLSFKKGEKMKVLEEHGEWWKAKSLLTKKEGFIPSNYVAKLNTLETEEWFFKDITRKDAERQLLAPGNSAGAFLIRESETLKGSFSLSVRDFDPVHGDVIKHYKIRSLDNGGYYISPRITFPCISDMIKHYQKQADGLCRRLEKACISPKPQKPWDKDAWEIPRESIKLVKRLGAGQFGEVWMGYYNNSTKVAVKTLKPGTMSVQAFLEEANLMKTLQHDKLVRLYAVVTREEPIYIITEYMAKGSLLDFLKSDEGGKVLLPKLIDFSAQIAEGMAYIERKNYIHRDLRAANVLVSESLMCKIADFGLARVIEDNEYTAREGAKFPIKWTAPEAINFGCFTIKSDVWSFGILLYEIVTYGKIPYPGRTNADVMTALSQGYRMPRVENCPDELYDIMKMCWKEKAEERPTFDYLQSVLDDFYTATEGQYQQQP

[25] = target: Serine/threonine-protein kinase MARK2 (Homo sapiens) (UniProt Q7KZI7); details: Compound concentration 1000.0 nM
Serine/threonine-protein kinase MARK2 (Homo sapiens), sequence (Q7KZI7 whole entry): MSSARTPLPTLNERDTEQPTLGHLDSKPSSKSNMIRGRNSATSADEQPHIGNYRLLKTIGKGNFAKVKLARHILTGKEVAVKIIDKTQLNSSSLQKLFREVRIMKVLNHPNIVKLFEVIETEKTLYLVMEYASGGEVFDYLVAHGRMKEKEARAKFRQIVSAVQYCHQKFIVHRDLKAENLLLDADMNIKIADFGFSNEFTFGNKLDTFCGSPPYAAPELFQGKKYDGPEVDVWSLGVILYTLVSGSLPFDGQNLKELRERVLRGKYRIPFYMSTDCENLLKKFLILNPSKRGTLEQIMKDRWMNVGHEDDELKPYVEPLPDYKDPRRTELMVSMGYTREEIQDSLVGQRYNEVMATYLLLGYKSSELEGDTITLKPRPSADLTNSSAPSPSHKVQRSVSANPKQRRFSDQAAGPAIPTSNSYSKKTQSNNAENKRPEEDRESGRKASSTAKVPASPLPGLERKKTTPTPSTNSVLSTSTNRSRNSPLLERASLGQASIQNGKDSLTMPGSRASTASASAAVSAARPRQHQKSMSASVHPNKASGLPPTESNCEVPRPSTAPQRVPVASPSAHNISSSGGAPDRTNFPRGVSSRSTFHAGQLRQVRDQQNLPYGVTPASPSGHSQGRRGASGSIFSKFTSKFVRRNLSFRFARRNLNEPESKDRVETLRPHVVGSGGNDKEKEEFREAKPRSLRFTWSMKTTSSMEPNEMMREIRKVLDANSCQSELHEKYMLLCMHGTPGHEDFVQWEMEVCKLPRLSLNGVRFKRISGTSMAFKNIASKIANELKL

[26] = target: Dual specificity mitogen-activated protein kinase kinase 6 (Homo sapiens) (UniProt P52564); details: Compound concentration 1000.0 nM
[27] = target: Serine/threonine-protein kinase 3 (Homo sapiens) (UniProt Q13188); details: Compound concentration 1000.0 nM
[28] = target: Serine/threonine-protein kinase Nek3 (Homo sapiens) (UniProt P51956); details: Compound concentration 1000.0 nM
[29] = target: Mitogen-activated protein kinase 12 (Homo sapiens) (UniProt P53778); details: Compound concentration 1000.0 nM
[30] = target: Cyclin-dependent kinase 15 (Homo sapiens) (UniProt Q96Q40); details: Compound concentration 1000.0 nM
[31] = target: cAMP-dependent protein kinase catalytic subunit alpha (Homo sapiens) (UniProt P17612); details: Compound concentration 1000.0 nM
[32] = target: Serine/threonine-protein kinase PLK3 (Homo sapiens) (UniProt Q9H4B4); details: Compound concentration 1000.0 nM
[33] = target: Protein kinase C epsilon type (Homo sapiens) (UniProt Q02156); details: Compound concentration 1000.0 nM
[34] = target: Protein kinase C iota type (Homo sapiens) (UniProt P41743); details: Compound concentration 1000.0 nM
[35] = target: Serine/threonine-protein kinase RIO3 (Homo sapiens) (UniProt O14730); details: Compound concentration 1000.0 nM
[36] = target: Ribosomal protein S6 kinase alpha-2 (Homo sapiens) (UniProt Q15349); details: Compound concentration 1000.0 nM
[37] = target: TRAF2 and NCK-interacting protein kinase (Homo sapiens) (UniProt Q9UKE5); details: Compound concentration 1000.0 nM
[38] = target: High affinity nerve growth factor receptor (Homo sapiens) (UniProt P04629); details: Compound concentration 1000.0 nM
[39] = target: Tyrosine-protein kinase TXK (Homo sapiens) (UniProt P42681); details: Compound concentration 1000.0 nM
[40] = target: Serine/threonine-protein kinase 32A (Homo sapiens) (UniProt Q8WU08); details: Compound concentration 1000.0 nM
[41] = target: Tyrosine-protein kinase Yes (Homo sapiens) (UniProt P07947); details: Compound concentration 1000.0 nM
Tyrosine-protein kinase Yes (Homo sapiens), sequence (P07947 2-543 limits assumed): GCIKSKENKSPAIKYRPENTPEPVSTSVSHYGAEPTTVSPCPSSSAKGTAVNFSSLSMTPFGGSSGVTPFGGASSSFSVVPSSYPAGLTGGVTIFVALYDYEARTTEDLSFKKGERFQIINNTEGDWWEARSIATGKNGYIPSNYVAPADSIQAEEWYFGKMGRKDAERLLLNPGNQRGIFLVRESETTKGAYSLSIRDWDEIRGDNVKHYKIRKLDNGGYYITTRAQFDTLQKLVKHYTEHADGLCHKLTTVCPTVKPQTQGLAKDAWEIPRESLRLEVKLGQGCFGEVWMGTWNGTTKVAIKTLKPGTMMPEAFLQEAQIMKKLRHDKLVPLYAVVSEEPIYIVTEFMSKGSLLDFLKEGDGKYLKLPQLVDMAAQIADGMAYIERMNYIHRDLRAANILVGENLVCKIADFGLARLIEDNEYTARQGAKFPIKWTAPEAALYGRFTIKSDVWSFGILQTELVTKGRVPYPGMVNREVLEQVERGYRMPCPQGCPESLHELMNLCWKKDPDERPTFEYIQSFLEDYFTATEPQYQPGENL

[42] = target: Tyrosine-protein kinase ZAP-70 (Homo sapiens) (UniProt P43403); details: Compound concentration 1000.0 nM
[43] = target: Histamine H4 receptor (Homo sapiens) (UniProt Q9H3N8); details: Compound concentration 10.0 uM
[44] = target: GABA-A receptor; anion channel (Rattus norvegicus) (UniProt O09028+P15431+P18506+P18508+P19969+P20236+P23574+P23576+P28471+P28473+P30191+P62813+P63079+P63138+Q91ZM7+Q9ES14); details: Compound concentration 10.0 uM

O=C(O)[C@@H]1[C@@H](Cn2nnc3ccccc3c2=O)CC[C@H]1C(=O)c1ccc(OCCC2CCOCC2)cc1 [BAY-694]
residual activity [1]: 82% | residual activity [2]: 84% | residual activity [3]: 96% | residual activity [4]: 100% | residual activity [5]: 100% | residual activity [6]: 100% | residual activity [7]: 100% | residual activity [8]: 100% | residual activity [9]: 100% | residual activity [10]: 100% | residual activity [11]: 98% | residual activity [12]: 100% | residual activity [13]: 100% | residual activity [14]: 87% | residual activity [15]: 99% | residual activity [16]: 94% | residual activity [17]: 86% | residual activity [18]: 53% | residual activity [19]: 83% | residual activity [20]: 89% | residual activity [21]: 91% | residual activity [22]: 100% | residual activity [23]: 91% | residual activity [24]: 97% | residual activity [25]: 100% | residual activity [26]: 100% | residual activity [27]: 100% | residual activity [28]: 83% | residual activity [29]: 100% | residual activity [30]: 100% | residual activity [31]: 90% | residual activity [32]: 87% | residual activity [33]: 100% | residual activity [34]: 100% | residual activity [35]: 100% | residual activity [36]: 96% | residual activity [37]: 93% | residual activity [38]: 86% | residual activity [39]: 94% | residual activity [40]: 92% | residual activity [41]: 100% | residual activity [42]: 99% | inhibition [43]: 3.39% | inhibition [44]: 13.1%

O=C(O)[C@H]1[C@H](Cn2nnc3ccccc3c2=O)CC[C@@H]1C(=O)c1ccc(OCCC2CCOCC2)cc1 [BAY-7598]
residual activity [1]: 86% | residual activity [2]: 100% | residual activity [3]: 98% | residual activity [4]: 100% | residual activity [5]: 100% | residual activity [6]: 79% | residual activity [7]: 90% | residual activity [8]: 86% | residual activity [9]: 90% | residual activity [10]: 100% | residual activity [11]: 87% | residual activity [12]: 100% | residual activity [13]: 100% | residual activity [14]: 79% | residual activity [15]: 100% | residual activity [16]: 85% | residual activity [17]: 100% | residual activity [18]: 40% | residual activity [19]: 72% | residual activity [20]: 100% | residual activity [21]: 100% | residual activity [22]: 100% | residual activity [23]: 100% | residual activity [24]: 92% | residual activity [25]: 100% | residual activity [26]: 100% | residual activity [27]: 91% | residual activity [28]: 86% | residual activity [29]: 93% | residual activity [30]: 100% | residual activity [31]: 97% | residual activity [32]: 100% | residual activity [33]: 100% | residual activity [34]: 66% | residual activity [35]: 79% | residual activity [36]: 90% | residual activity [37]: 84% | residual activity [38]: 88% | residual activity [39]: 100% | residual activity [40]: 88% | residual activity [41]: 100% | residual activity [42]: 100% | inhibition [43]: 1.99% | inhibition [44]: 6.48%
